Measured values taken from BigSolDB 2.1.

C[C@H](O)[C@@H](O)[C@@H](O)[C@H](O)C=O
solubility (mole fraction)
Details | in acetone | in ethanol | in isopropanol | in methanol | in water
288.15 K | 0.00023 | 0.00032 | 0.00014 | 0.00216 | 0.0512
293.15 K | 0.00025 | 0.00038 | 0.00024 | 0.00244 | –
298.15 K | 0.00028 | 0.00043 | 0.00032 | 0.00275 | 0.0979
303.15 K | 0.00032 | 0.00057 | 0.00043 | 0.00307 | 0.129
308.15 K | 0.00038 | 0.00071 | 0.00056 | 0.00345 | 0.174
